This note sets out measurements from US20240041042A1, “1-(PYRIDYL)-5-AZINYLPYRAZOLE DERIVATIVES, AND THEIR USE FOR CONTROL OF UNDESIRED PLANT GROWTH” (Bayer Aktiengesellschaft, priority 2020, published 2024).

Like-named read-outs stand apart in the source and are kept apart here.

What all share (assay type): in vivo
Series [1] concerns Pharbitis purpurea (PHBPU). The series can be described thus: Post-emergence herbicidal action against PHBPU. The procedure, abridged:
(§1)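 Post-emergence greenhouse spray, one-leaf stage, 600 l/ha water plus 0.5% additive; WP or EC formulations; application rates 320 g/ha or lower. Visual % damage vs untreated controls at ~3 weeks.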

The next series relates to Viola tricolor (VIOTR). Kind of series: Post-emergence herbicidal action against VIOTR. The procedure, abridged:
as §1

Series [2] relates to Abutilon theophrasti (ABUTH). Kind of series: Post-emergence herbicidal action against ABUTH. Conditions: visual rating about 3 weeks after treatment vs untreated controls (100% = plants have died, 0% = like control plants). The procedure, abridged: as §1
Series [3] relates to Digitaria sanguinalis (DIGSA). The series can be described thus: Post-emergence herbicidal action against DIGSA. The conditions noted are these: visual rating about 3 weeks after treatment. The procedure, abridged: as §1
The next series relates to Setaria viridis (SETVI). The series can be described thus: Post-emergence herbicidal action against SETVI. An outline of the steps: as §1
The next series deals with Zea mays (ZEAMX). The conditions noted are these: for Post-emergence action against ZEAMX in %: crop plant compatibility, 80 g/ha, effect vs untreated controls. The procedure, abridged: (§2)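 Foliar application at the one-leaf stage: WP/EC formulation, 0.5% additive, 600 l/ha water. Greenhouse-grown in sandy loam. Endpoint is visual % injury relative to untreated controls at about 3 weeks.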

For series [4], the system named is Triticum aestivum (TRZAS). The conditions noted are these: crop plant compatibility, 20 g/ha, effect vs untreated controls. The procedure, abridged: as §2
The test system of a further series is Oryza sativa (ORYSA). Conditions: crop plant compatibility. An outline of the steps:
as §2

For series [5], the system named is Echinochloa crus-galli (ECHCG). The series can be described thus: Post-emergence herbicidal action against ECHCG. The procedure, abridged: as §1
Series [6] relates to Amaranthus retroflexus (AMARE). Kind of series: Post-emergence herbicidal action against AMARE. The procedure, abridged:
as §1

The subject of series [7] is Matricaria inodora (MATIN). The series can be described thus: Post-emergence herbicidal action against MATIN. The procedure, abridged: as §1
The subject of the next series is Avena fatua (AVEFA). Kind of series: Post-emergence herbicidal action against AVEFA. The conditions noted are these: 320 g/ha, visual rating about 3 weeks after treatment. An outline of the steps: as §1
The test system of series [8] is Alopecurus myosuroides (ALOMY). Kind of series: Post-emergence herbicidal action against ALOMY. The conditions noted are these: 320 g/ha, visual rating about 3 weeks after treatment vs untreated controls (100% = plants have died, 0% = like control plants). An outline of the steps:
as §1

The test system of series [9] is Polygonum convolvulus (POLCO). Kind of series: Post-emergence herbicidal action against POLCO. An outline of the steps: as §1
In series [10] the test system is Verconica persica (VERPE). The series can be described thus: Post-emergence herbicidal action against VERPE. An outline of the steps: as §1
The mark [11] stands for this setting: 20 g/ha, effect vs untreated controls.
Setting [12] is: 80 g/ha, effect in comparison to untreated controls.
[13] abbreviates: 320 g/ha, visual rating about 3 weeks after treatment.

Regarding `Cc1ncccc1-n1nc(OCC(=O)OCC2CCCO2)c(Br)c1-c1cncc(F)c1` (centres unmarked) [II-43], the results for the “Post-emergence action against PHBPU in %” value in series [1] (dosage 80 g/ha) and in series [1] (dosage 320 g/ha) were 80% and 90%, respectively. In addition, the “Post-emergence action against VIOTR in %” value with Viola tricolor (VIOTR) (80 g/ha) and in the series on Viola tricolor (VIOTR) (320 g/ha) was 90% each time. Besides, the “Post-emergence action against ABUTH in %” value in [2] (320 g/ha) is recorded as 80%. Besides, in series [3] (320 g/ha), the “Post-emergence action against DIGSA in %” value is 80%. The “Post-emergence action against SETVI in %” value in the series with Setaria viridis (SETVI) (dosage 320 g/ha) was 90%. Besides, the “Post-emergence action against ZEAMX in % (crop plant compatibility)” value with Zea mays (ZEAMX) (20 g/ha, ZEAMX, effect in comparison to untreated controls) was determined as 0%. The “Post-emergence action against ZEAMX in %” value with Zea mays (ZEAMX) turned out to be 20%. Further, in series [4], the “Post-emergence action against TRZAS in %” value is listed as 10%. The “Post-emergence action against ORYSA in %” value in the series with Oryza sativa (ORYSA) (setting [11]) came out at 0%; with Oryza sativa (ORYSA) (setting [12]), 0%; in the series with Oryza sativa (ORYSA) (320 g/ha, effect in comparison to untreated controls) it was 0%. Besides, the “Post-emergence action against ECHCG in %” value in series [5] (dosage 320 g/ha) turned out to be 90%. The “Post-emergence action against AMARE in %” value in [6] (setting [13]) is 90%. Moreover, the “Post-emergence action against MATIN in %” value in [7] (dosage 320 g/ha) is on record as 80%. Besides, the “Post-emergence action against AVEFA in %” value with Avena fatua (AVEFA) is reported as 90%. In addition, the “Post-emergence action against ALOMY in %” value in series [8] came out at 100%. Also, in series [9] (dosage 320 g/ha), the “Post-emergence action against POLCO in %” value came to 80%. The “Post-emergence action against VERPE in %” value in series [10] (320 g/ha, VERPE) was found to be 90%; in series [10] (dosage 80 g/ha), 90%.
Turning to `COC(=O)COc1nn(-c2ncccc2C)c(-c2cncc(F)c2)c1Br` [Example I-179], the “Post-emergence action against PHBPU in %” value was 80% in series [1] (dosage 80 g/ha) and 90% in series [1] (dosage 320 g/ha). Further, the “Post-emergence action against VIOTR in %” value in the series with Viola tricolor (VIOTR) (80 g/ha) and in the series with Viola tricolor (VIOTR) (320 g/ha) was 90% each time. In addition, the “Post-emergence action against ABUTH in %” value in series [2] (80 g/ha) and in [2] (320 g/ha) was 80% in each case. For the same molecule, the “Post-emergence action against DIGSA in %” value in series [3] (80 g/ha) and in series [3] (320 g/ha) was 90% throughout. Moreover, the “Post-emergence action against SETVI in %” value in the series with Setaria viridis (SETVI) (dosage 80 g/ha) and in the series on Setaria viridis (SETVI) (dosage 320 g/ha) was 90% throughout. In addition, the “Post-emergence action against ZEAMX in %” value in the series with Zea mays (ZEAMX) is listed as 20%. For the same molecule, the “Post-emergence action against TRZAS in %” value in [4] is listed as 0%. Further, the “Post-emergence action against ORYSA in %” value is reported as 0% in the series on Oryza sativa (ORYSA) (setting [11]) and 20% with Oryza sativa (ORYSA) (setting [12]). The “Post-emergence action against ECHCG in %” value in series [5] (dosage 80 g/ha) and in series [5] (dosage 320 g/ha) was 90% throughout. Also, the “Post-emergence action against AMARE in %” value in [6] (80 g/ha, visual rating about 3 weeks after treatment vs untreated controls (100% = plants have died, 0% = like control plants)) is listed as 90%; in [6] (setting [13]), 90%. For the same molecule, the “Post-emergence action against MATIN in %” value stood at 80% in series [7] (dosage 80 g/ha) and 90% in series [7] (dosage 320 g/ha). Further, the “Post-emergence action against AVEFA in %” value in the series with Avena fatua (AVEFA) is 90%. In addition, the “Post-emergence action against ALOMY in %” value in [8] is 90%. Besides, the “Post-emergence action against POLCO in %” value in series [9] (dosage 80 g/ha) and in series [9] (dosage 320 g/ha) was 90% throughout. Further, the “Post-emergence action against VERPE in %” value in series [10] (320 g/ha, VERPE) is 90%; in series [10] (dosage 80 g/ha), 90%.
Take `CCOC(=O)COc1nn(-c2cccnc2C)c(-c2cncc(F)c2)c1Br` [II-45]: in [1] (dosage 320 g/ha), the “Post-emergence action against PHBPU in %” value is 90%. In addition, the “Post-emergence action against VIOTR in %” value in the series on Viola tricolor (VIOTR) (80 g/ha) and with Viola tricolor (VIOTR) (320 g/ha) was 90% throughout. In addition, the “Post-emergence action against ABUTH in %” value in series [2] (320 g/ha) turned out to be 80%. The “Post-emergence action against DIGSA in %” value in series [3] (320 g/ha) was determined as 80%. Further, the “Post-emergence action against SETVI in %” value in the series on Setaria viridis (SETVI) (dosage 320 g/ha) stood at 90%. In series [4], the “Post-emergence action against TRZAS in %” value is listed as 0%. Also, the “Post-emergence action against ORYSA in %” value with Oryza sativa (ORYSA) (setting [11]) and in the series with Oryza sativa (ORYSA) (setting [12]) was 0% throughout. Further, the “Post-emergence action against ECHCG in %” value in [5] (dosage 320 g/ha) was 90%. Also, the “Post-emergence action against AMARE in %” value in [6] (setting [13]) is listed as 80%. In addition, the “Post-emergence action against MATIN in %” value in [7] (dosage 320 g/ha) came out at 90%. Besides, in the series with Avena fatua (AVEFA), the “Post-emergence action against AVEFA in %” value was 90%. Further, in series [8], the “Post-emergence action against ALOMY in %” value is recorded as 90%. Moreover, the “Post-emergence action against POLCO in %” value in series [9] (dosage 80 g/ha) came out at 80%; in series [9] (dosage 320 g/ha), 90%. The “Post-emergence action against VERPE in %” value in [10] (320 g/ha, VERPE) is 90%; in [10] (dosage 80 g/ha), 90%.
